Patent US20120165319A1, “INHIBITORS OF INTERLEUKIN-1 BETA CONVERTING ENZYME” (VERTEX PHARMACEUTICALS INCORPORATED, priority 1995, published 2012)

Columns and labels:
[1] = Pharmacokinetic studies in the mouse (i.v. clearance, plasma levels); type: in vivo; settings: CD-1, plasma, iv, mouse, 25 mg/kg
Procedure: Pharmacokinetic Studies in the Mouse
Sample Preparation and Dosing
Compounds were dissolved in sterile TRIS solution (0.02M or 0.05M) at a concentration of 2.5 mg/ml. Where necessary to ensure a complete solution, the sample was first dissolved in a minimum of dimethylacetamide (maximum of 5% of total solution volume) then diluted with the TRIS solution.
The drug solution was administered to CD-1 mice (Charles River Laboratories—26-31 g) via the tail vein at a dose volume of 10 ml/kg giving a drug dose of 25 mg/kg.
Mice were dosed in groups of 5 for each timepoint (generally from 2 minutes to 2 hours) then at the appropriate time the animals were anaesthetised with halothane and the blood collected into individual heparinized tubes by jugular severance. The blood samples were cooled to 0° C. then the plasma separated and stored at −20° C. until assayed.
Drug concentration in the plasma samples were determined by HPLC analysis with UV or MS (ESP) detection. Reverse phase chromatography was employed using a variety of bonded phases from C1 to C18 with eluents composed of aqueous buffer/acetonitrile mixtures run under isocratic conditions.
Quantitation was by external standard methods with calibration curves constructed by spiking plasma with drug solutions to give concentrations in the range of 0.5 to 50 μg/ml.
Prior to analysis the plasma samples were deproteinated by the addition of acetonitrile, methanol, trichloroacetic acid or perchloric acid followed by centrifugation at 10,000 g for 10 minutes. Sample volumes of 20 μl to 50 μl were injected for analysis.
The drug was dissolved in sterile 0.02M Tris to give a 2.5 mg/ml solution which was administered to […] of 5 male CD-1 mice via the tail vein at a dose of 25 mg/kg. At each of the following timepoints: 2, 5, 10, 15, 20, 30, 45, 60, 90 and 120 minutes a group of animals was anaesthetised and the blood collected into heparinized tubes. After separation the plasma was stored at −20° C. until assayed.
Aliquots of plasma (150 μl) were treated with 5% perchloric acid (5 μl) then mixed by vortexing and allowed to stand for 90 minutes prior to centrifugation. The resulting supernatant was separated and 20 μl was injected for HPLC analysis.
Aliquots of plasma (100 μl) were diluted with acetonitrile (100 μl) then mixed by vortexing for 20 seconds before centrifugation for 10 minutes. The resulting supernatant was separated and 20 μl was injected for HPLC analysis.

IL-1β, human whole blood = assay: Whole blood assay for IL-1β production; type: cell-based; settings: Homo sapiens, * = values obtained upon reassay; read-out: Whole human blood IC50
Method in brief: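 IL-1β was quantified by ELISA in plasma diluted 1:200. The plasma came from EDTA-anticoagulated human whole blood incubated at 30 °C for 16-18 h with LPS (final 5.0 ng/ml) plus a saline serial dilution of compound. Controls were no-LPS, no-inhibitor and highest-vehicle.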

[2] = tested on: IL-1β, human peripheral blood mononuclear cells (PBMC); assay: PBMC cell assay: IL-1β assay with human PBMC or enriched adherent mononuclear cells, LPS-stimulated; type: cell-based; settings: Homo sapiens, PBMC
Method in brief: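 Mature IL-1β is measured by ELISA in supernatants after 16–18 hr at 37 °C, 5% CO2, with LPS (5 ng/ml final) and test compound (0.1% DMSO final). Cells are human PBMC (6×10^6 cells/ml) or plate-adherent mononuclear cells (2.5−3.0×10^5 per well), and the 5–6 compound concentrations span the ICE Ki.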

ICE = target: T1, ICE (Homo sapiens, UniProt P29466); assay: Enzyme assay with UV-visible substrate (visible ICE assay, Succinyl-Tyr-Val-Ala-Asp-pNitroanilide); type: biochemical
T1 sequence (P29466 120-297 limits assumed): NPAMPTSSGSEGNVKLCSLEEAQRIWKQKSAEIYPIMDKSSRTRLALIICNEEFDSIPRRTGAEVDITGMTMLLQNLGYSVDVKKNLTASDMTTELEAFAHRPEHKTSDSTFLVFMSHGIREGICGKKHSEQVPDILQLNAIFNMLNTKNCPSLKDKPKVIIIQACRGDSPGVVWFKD
T1 sequence (P29466 317-404 limits assumed): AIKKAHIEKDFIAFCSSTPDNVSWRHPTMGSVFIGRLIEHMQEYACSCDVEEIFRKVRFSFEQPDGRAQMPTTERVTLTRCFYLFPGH
Method in brief: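 Colorimetric caspase-1 activity: 15 min enzyme-inhibitor preincubation (RT), then Suc-Tyr-Val-Ala-Asp-pNA; 405-603 nm kinetics, 20 min, 37° C. Ki from rate fitting.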

Row | clearance [1] [mL/min/kg] | melting point | IC50 (IL-1β, human whole blood) [µM] | Ki (ICE; Table 5) [µM] | clearance ([1]; Table 17) [mL/min/kg] | Ki (ICE; Table 17) [µM] | SMILES | IC50 ([2]; * = values obtained upon reassay) [µM] | IC50 ([2]; Table 17) [µM]
1 | 338 | 87 to 90 °C | < 0.6 |  |  |  | O=C[C@H](CC(=O)O)NC(=O)[C@@H]1CCCN2CCC[C@H](NC(=O)CCc3ccccc3)C(=O)N12 [Compound 47b, [3S(1S,9S)]3-(Octahydro-10-oxo-9-(3-phenylpropionylamino)-6H-pyridazino-[1,2-a][1,2]diazepine-1-carboxamido)-4-oxobutanoic acid] |  | 
2 | 36 | 142 °C (dec.) |  | 0.51 |  |  | O=C[C@H](CCC(=O)O)NC(=O)[C@@H]1CCCN2C(=O)CC[C@H](NC(=O)c3ccccc3)C(=O)N12 [Compound 235e, [4S,(1S,9S)]-4-[9-(Benzoylamino)-6,10-dioxo-1,2,3,4,7,8,9,10-octahydro-6H-pyridazino-[1,2-a][1,2]diazepine-1-carboxamido]-5-oxopentanoic acid] | 4.75 | 
3 |  | 115 to 119 °C |  |  | 87 | 30 | O=C[C@H](CC(=O)O)NC(=O)[C@@H]1CCCN2CCC[C@@H](NC(=O)c3ccccc3)C(=O)N12 [Compound 246b, [3S(1S,9R)]3-(9-Benzoylamino-1,2,3,4,7,8,9,10-octahydro-10-oxo-6H-pyridazino[1,2-a][1,2]diazepine-1-carboxamido)-4-oxobutanoic acid] |  | > 30
